# In PMC12436592 (Nature Communications, 2025):
# Where “and” joins values, the source holds several entries; their conditions need not be identical. Equal entries are not always repeated. Entries after “also recorded” stand apart in the source; their conditions may differ.
# Legend:
# [1] = target: T1, mP2X7R (Mus musculus, UniProt Q9Z1M0); test: Calcium influx assay, 1321N1 astrocytoma cells, BzATP EC80; type: cell-based; settings: for IC50: 1321N1 cells, BzATP EC80, mean ± SD
# T1 construct: expressed in transfected cells
# T1 sequence (Q9Z1M0 1-595): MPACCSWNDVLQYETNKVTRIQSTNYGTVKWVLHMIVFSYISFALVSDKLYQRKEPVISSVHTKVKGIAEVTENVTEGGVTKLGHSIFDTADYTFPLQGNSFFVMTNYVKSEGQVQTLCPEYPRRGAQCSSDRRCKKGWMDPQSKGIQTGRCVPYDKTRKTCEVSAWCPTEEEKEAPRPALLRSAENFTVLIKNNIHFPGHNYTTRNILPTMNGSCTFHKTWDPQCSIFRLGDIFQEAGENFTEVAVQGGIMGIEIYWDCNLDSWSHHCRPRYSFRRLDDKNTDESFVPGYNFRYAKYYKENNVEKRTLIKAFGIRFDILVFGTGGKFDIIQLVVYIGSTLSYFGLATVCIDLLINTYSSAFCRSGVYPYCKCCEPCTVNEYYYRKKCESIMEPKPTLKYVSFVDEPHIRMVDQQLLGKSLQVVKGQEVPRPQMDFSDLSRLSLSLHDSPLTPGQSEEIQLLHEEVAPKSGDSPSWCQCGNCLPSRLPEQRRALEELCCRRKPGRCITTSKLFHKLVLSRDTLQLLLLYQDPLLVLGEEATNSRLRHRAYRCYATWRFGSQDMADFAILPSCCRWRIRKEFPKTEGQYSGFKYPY
# Source text: (§1) . For 1321N1 astrocytoma cells stably expressing the human, rat, or mouse P2X7Rs, or hP2X2Rs or hP2X4Rs, the fluorescent Ca^2+-chelating dye Fluo-4 acetoxymethyl ester (Fluo-4 AM, Thermo Fisher Scientific, Dreieich, Germany) was used. For 1321N1 astrocytoma cell lines recombinantly expressing the hP2X1Rs or hP2X3Rs, the FLIPR® Calcium 5 Assay Kit (Molecular Devices, San José, CA, USA) was employed. Human, rat, and mouse P2X7Rs as well as hP2X1Rs, hP2X2Rs, hP2X3Rs, and hP2X4Rs were recombinantly expressed in 1321N1 astrocytoma cells using a retroviral expression system[72]–[74].
# (§2) On the first day, 45,000 cells per well (30,000 cells for the human P2X3 receptor-expressing cells) were seeded into a 96-well polystyrene microplate with a black, flat bottom in a final volume of 200 µL. After overnight incubation at 37 °C and 10% CO2 (5% CO2 for the human P2X3R-expressing cell line), the medium was removed by inverting the plate, and the cells were loaded with dye solution. Hanks’ balanced salt solution (HBSS, Thermo Fisher Scientific, Dreieich, Germany) was used as the assay buffer for human P2X1R, P2X2R, P2X3R, and P2X4R. For the P2X7Rs, a different assay buffer was used: 150 mM sodium-glutamate, 5 mM KCl, 0.5 mM CaCl2, 0.1 mM MgCl2, 10 mM D-glucose, 25 mM 4-(2-hydroxyethyl)-1-piperazineethanesulfonic acid (HEPES), pH 7.4. The dye solutions were freshly prepared. The Fluo-4 AM solution contained 3 µM of Fluo-4 AM in assay buffer and 1% of the non-ionic detergent Pluronic F-127® (Sigma-Aldrich, Taufkirchen, Germany). The Calcium 5 dye, used for hP2X1Rs and hP2X3Rs, was prepared in HBSS buffer. Cells were loaded with Fluo-4 AM and incubated for 1 h at room temperature with gentle shaking (100 rpm), while those loaded with the Calcium 5 dye were incubated for 1 h at 37 °C. After incubation, the dye solution was carefully removed from the plate, and buffer was added to the cells for the evaluation of agonists. […] The agonist solution was prepared in a 96-well transparent plate, obtaining the respective EC80 values. As a control, assay buffer without the test compound was used. After 30 min of incubation with antagonist, the plates were measured using a fluorescence imaging plate reader NOVOstar (BMG Labtech GmbH, Offenburg, Germany) at an excitation wavelength of 485 nm and an emission wavelength of 520 nm, for 30 s at 0.4 s intervals. Calcium influx measurements were then initiated by automatic addition of 20 µL of agonist solution by the plate reader’s pipetting device. Data were analyzed using Microsoft Excel and GraphPad Prism (Version 8.0, San Diego, CA, USA). EC80 and IC50 values were calculated using nonlinear regression with a sigmoidal dose-response equation.
# [2] = target: T2, hP2X1R (Homo sapiens, UniProt P51575); test: Calcium influx assay, 1321N1 astrocytoma cells, ATP EC80; type: cell-based; settings: 1321-N1, read-out: % inhibition ± SD at 10 μM, hP2X1R, 10 μM antagonist, ATP 100 nM
# T2 sequence (P51575 51-338 limits assumed): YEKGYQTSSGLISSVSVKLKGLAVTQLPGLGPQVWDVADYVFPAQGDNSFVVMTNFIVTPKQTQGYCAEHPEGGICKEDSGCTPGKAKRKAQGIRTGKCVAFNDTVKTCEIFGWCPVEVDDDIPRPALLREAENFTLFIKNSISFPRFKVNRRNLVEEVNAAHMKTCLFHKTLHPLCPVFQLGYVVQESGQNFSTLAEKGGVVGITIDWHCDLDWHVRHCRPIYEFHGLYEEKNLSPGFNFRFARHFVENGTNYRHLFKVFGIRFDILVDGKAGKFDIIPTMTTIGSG
# Source text: as §1
# On the first day, 45,000 cells per well (30,000 cells for the human P2X3 receptor-expressing cells) were seeded into a 96-well polystyrene microplate with a black, flat bottom in a final volume of 200 µL. […] After 30 min of incubation with antagonist, the plates were measured using a fluorescence imaging plate reader NOVOstar (BMG Labtech GmbH, Offenburg, Germany) at an excitation wavelength of 485 nm and an emission wavelength of 520 nm, for 30 s at 0.4 s intervals. Calcium influx measurements were then initiated by automatic addition of 20 µL of agonist solution by the plate reader’s pipetting device. Data were analyzed using Microsoft Excel and GraphPad Prism (Version 8.0, San Diego, CA, USA). EC80 and IC50 values were calculated using nonlinear regression with a sigmoidal dose-response equation.
# [3] = system: T3, hP2X4R; test: as above; type: cell-based, human; settings: 10 μM antagonist, ATP 300 nM
# T3 construct: expressed in transfected cells
# Source text: as §1, §2
# [4] = system: T4, hP2X2R; test: as above; type: cell-based, human; settings: 10 μM antagonist, ATP 1000 nM
# T4 construct: expressed in transfected cells
# Source text: as §1, §2
# [5] = system: T5, hP2X4R; test: TEVC current traces with co-applied antagonist in Xenopus oocytes; type: cell-based, human; settings: 300 µM ATP, 100 nM antagonist
# T5 construct: expressed in transfected cells; host or cells: Xenopus laevis oocytes (cRNA, pNKS2 vector)
smiles,measurement,setting,value
"O=C(NNc1ccccc1Cl)C12CC3CC(CC(C3)C1)C2 [UB-ALT-P30, reference compound]",activity at 0.003 µM,"[1]; 1321-N1, Log(c) M -8.52288, read-out: normalized calcium signal, mP2X7R IC50 curve",101%
same,IC50,[1],148 ± 27 nM
same,"normalized calcium signal, mP2X7R IC50 curve","[1]; Log(c) M -7, 0.1 µM",58.6062 and 69.2329 and 80.2999 and 70.4572 and 91.3507 and 85.9323 and 94.1322
same,"normalized calcium signal, mP2X7R IC50 curve","[1]; Log(c) M -7.52288, 0.03 µM",92.3415 and 79.1265 and 114.599 and 132.12 and 97.8989 and 119.546
same,"normalized calcium signal, mP2X7R IC50 curve","[1]; Log(c) M -8, 0.01 µM",92.8335 and 100.155 and 89.6254 and 122.632 and 113.342 and 120.308
same,"normalized calcium signal, mP2X7R IC50 curve","[1]; Log(c) M -8.52288, 0.003 µM",96.3012 and 101.363
same,inhibition at 10 µM,[2],36 ± 8%
same,"% inhibition ± SD at 10 μM, hP2X4R",[3],44 ± 14%
same,"% inhibition ± SD at 10 μM, hP2X2R",[4],29 ± 7%
CC12CC3CC1(C)C1(C)CC3(C(=O)NNc3ccccc3Cl)CC21C [UB-MBX-46],IC50,[1],4.52 ± 0.72 nM
same,"normalized calcium signal, mP2X7R IC50 curve","[1]; Log(c) M -8.52288, 0.003 µM",72.2751 and 83.0134 and 65.4518 and 88.1956 and 92.7904 and 87.7744 and 76.3105 and 64.8252
same,"normalized calcium signal, mP2X7R IC50 curve","[1]; Log(c) M -9, 0.001 µM",110.597 and 115.455 and 88.4 and 102.046 and 107.58 and 103.403 and 110.382
same,"normalized calcium signal, mP2X7R IC50 curve","[1]; Log(c) M -9.52288, 0.0003 µM",115.86 and 127.811 and 92.8545 and 89.4511 and 104.887 and 106.902 and 87.8281 and 105.571
same,times more potent than UB-ALT-P30 on the mP2X7R,[1]; calcium influx,~ 33 x
same,antagonism of the hP2X4R,[5],virtually no antagonism; also recorded: negligible
same,"% inhibition ± SD at 10 μM, hP2X4R",[3],41 ± 19%
same,"% inhibition ± SD at 10 μM, hP2X2R",[4],15 ± 9%
